Values belong to the compound of their own block, whether it stands above or below them.
How the values were obtained:
[1] = in vitro; conditions: PAMPA, pH 7.4
Protocol: The reference compounds, well-permeable caffeine and low-permeable norfloxacin were obtained from Sigma-Aldrich (St. Louis, MO, USA). Used for this study, pre-coated PAMPA Plate System Gentest™ was provided by Corning (Tewksbury, MA, USA). The system consisted of 96-well receiver filter plate pre-coated with structured layers of phospholipids and a donor microplate. The assay was performed as described previously. […] After 5 h of incubation at RT° the UPLC-MS spectrometry (Waters ACQUITY™ TQD system with the TQ Detector, Waters, Milford, MA, USA) method was used to estimate the quantity of compounds that penetrated from donor to acceptor wells. The permeability coefficients (Pe, cm/s) were calculated using the formulas provided by Corning.

[2] = system: mice fed high fat diet; set-up: method as in PMID 15833055, PMID 15447739; conditions: mice fed high fat diet ref 4, 16; cited from earlier work
[3] = system: female Wistar rats; assay: Visceral illness via kaolin intake (pica behavior); type: in vivo; conditions: single i.p., 24 h; vs vehicle control
Protocol: The method was based on the works by Takeda et al. and Yamamoto et al. with minor modification. The experiment lasted for five days. In addition to free access to feed, animals had also free access to a white kaolin. For the first few days, the animals were accustomed to the presence of kaolin in their cages. […] Moreover, animals were weighed before the compounds administration and 24 h after.

[4] = system: rat; conditions: i.p., no reference given; cited from earlier work
[5] = system: laboratory animals; set-up: method as in PMID 33261900; conditions: laboratory animals ref 12; cited from earlier work

SMILES: Cn1c(=O)c2c(ncn2C)n(C)c1=O [CFN, caffeine]
Papp at 5 h, 200 µM [1]: 12.2 ± 0.94 ×10⁻⁶ cm/s

SMILES: CN(C)[C@@H]1CCN(CCCOc2ccc(-c3ccc(C#N)cc3)cc2)C1 [Compound A-331440]
body weight [2]: caused weight loss
insulin tolerance [2]: normalized insulin tolerance
leptin levels [2]: lowered leptin levels

SMILES: O=S(=O)([O-])[O-].[Cu+2] [CuSO4, reference compound]
calorie intake (pica model) [3]: reduced caloric intake
water intake (pica model) [3]: drank less water
LD50 [4]: 18 mg/kg

SMILES: N#Cc1ccc(-c2ccc(OCCCN3CCN(c4ccncc4)CC3)cc2)cc1 [KSK-94]
kcal intake [5]: reduced kcal intake
plasma triglyceride and total cholesterol levels [5]: lowering plasma triglyceride and total cholesterol levels
weight gain [5]: strongly prevented weight gain

Papp at 5 h, 200 µM [1]: 0.056 ± 0.01 ×10⁻⁶ cm/s
SMILES: CCn1cc(C(=O)O)c(=O)c2cc(F)c(N3CCNCC3)cc21 [NFX, norfloxacin]

Source: paper PMC8622623, “Histamine H3 Receptor Ligands—KSK-59 and KSK-73—Reduce Body Weight Gain in a Rat Model of Excessive Eating” (Pharmaceuticals, 2021)
